What all share (format): cell-based, bovine
Assay [1] concerns BAECs. Briefly: Scratch wound healing assay. The note with it: 50 ng/ml SDF-1alpha, no inhibitor. Here is the method: For detection of cell migration, a wound healing assay was performed as previously described (40). BAECs were grown on 35 mm wells, the monolayer was scratched with a sterile disposable rubber policeman and the edge labeled with a traced line. After injury, the cells were gently washed with normal media without serum. EC migration from the edge of the injured monolayer was quantified by measuring the area between the wound edges before and the recovered area after injury using light microscopy (Eclipse TS100, 4× objective, Nikon) and the computer program ImageJ.
To determine whether eNOS activation is required for SDF-1α-mediated endothelial cell migration, we performed scratch-wound healing and Boyden chamber migration assays in the presence of the NOS-specific inhibitor L-NMMA (19). Confluent BAECs were pretreated for one hour with 1 mM or 5 mM L-NMMA or vehicle prior to each assay. […] Similarly, cell migration in Boyden chambers was induced by SDF-1α (from 8±3 to 86±5 cells per field), but this increase in migration was inhibited by the pre-incubation of BAECs with L-NMMA (FIG. 1D). The involvement of eNOS in SDF-1α-induced endothelial cell migration was confirmed by treatment of cells with siRNAs specific for eNOS. […]

The subject of the next assay is JNK3. Briefly: JNK activation (phospho-JNK Western blot) in BAECs. As to conditions: BAECs. Here is the method: (§1) Cells were harvested in lysis buffer (1% Triton X-100, 50 mM Tris, pH 7.4, 150 mM NaCl, 1 mM Na3VO4 and 0.1% protease inhibitor tablet; Roche) and clarified by centrifugation at 16,000 g. Equal amounts of proteins were incubated with a specific antibody overnight at 4° C. with gentle rotation. Protein A/G Plus-agarose beads (Santa Cruz Biotechnology, Santa Cruz, Calif.) were used to pull down the antibody complexes. Afterward, beads were washed with lysis buffer, and immune complexes were separated by SDS-PAGE. Total cell lysates were separated by SDS-PAGE and transferred to nitrocellulose membranes.
Mitogen-activated protein kinases (MAPKs), including ERK1/2 and p38, have been reported to enhance angiogenesis (20, 21). However, the role of JNK in angiogenesis remains controversial, with studies showing both positive and negative outcomes of JNK activation. In order to determine which MAPKs are involved in SDF-1α-induced endothelial cell migration, we screened the activities and expression levels of ERK1/2, p38 and JNK following treatment of BAECs with SDF-1α. […] SDF-1α activated both JNK and ERK1/2 in a dose-dependent manner (FIG. 2B). […] Protein and mRNA for all three JNK isoforms, JNK1, JNK2 and JNK3, can be found in BAECs (FIGS. 5, A&B). In order to determine which JNK protein(s) was activated by SDF-1α in these cells we used a previously described assay (22). Exogenous JNK1, JNK2 and JNK3 proteins containing Flag or GFP-epitopes were transiently expressed in BAECs and their activities were determined via western blotting with a phospho-JNK antibody following SDF-1α treatment. […] To confirm the finding that JNK3 is the only JNK entity activated by SDF-1α, we transfected cells with siRNAs for each of the JNK proteins and then tested the effect of each siRNA for the ability to suppress SDF-1α-induced JNK activation. […] Because JNK3 was the only SDF-1α-activated JNK in endothelial cells in our studies (FIG. 2C & FIG. 5, C), we consider the phospho-JNK signals in western blots with anti-phospho-JNK antibody as the signals for activated JNK3.

For the next assay, the system named is ERK1/2. Briefly: ERK1/2 activation, Western blot in BAECs. As to conditions: BAECs, SDF-1α 50 ng/ml. The protocol: as §1
(§2) Mitogen-activated protein kinases (MAPKs), including ERK1/2 and p38, have been reported to enhance angiogenesis (20, 21). However, the role of JNK in angiogenesis remains controversial, with studies showing both positive and negative outcomes of JNK activation. In order to determine which MAPKs are involved in SDF-1α-induced endothelial cell migration, we screened the activities and expression levels of ERK1/2, p38 and JNK following treatment of BAECs with SDF-1α. […] SDF-1α activated both JNK and ERK1/2 in a dose-dependent manner (FIG. 2B). […] Exogenous JNK1, JNK2 and JNK3 proteins containing Flag or GFP-epitopes were transiently expressed in BAECs and their activities were determined via western blotting with a phospho-JNK antibody following SDF-1α treatment. […]
A general note: A western blot detects proteins with antibodies after separation by electrophoresis.

The subject of the next assay is p38. Briefly: p38 activation, Western blot in BAECs. As to conditions: SDF-1α treatment. Here is the method: as §1, §2
Assay [2] has as its system BAECs. Briefly: In vitro Matrigel angiogenesis (tube formation) assay. The note with it: 50 ng/ml SDF-1α, control siRNA cells. The protocol:
Endothelial cell tube formation was analyzed with the Matrigel-based tube formation assay (40, 41). Chilled 24-well plates were coated with growth factor-reduced Matrigel (Becton Dickinson, San Jose, Calif.) that was polymerized at 37° C. for 30 min. BAECs were transfected with siRNA constructs with the Amaxa Nucleofector electroporation reagent. Three days later, cells were trypsinized, and plated at equal numbers into each Matrigel-coated well. After 18 hours of incubation in the absence or presence of SDF-1alpha, the formation of tubes was photographed (Eclipse, 10× objective, TS100Nikon). Images were quantified with ImageJ.
Endothelial cell migration is a critical step for tube formation during angiogenesis. To test the importance of JNK3 in highly ordered cell assembly processes, we examined the effect of JNK knockdown with siRNAs on the formation of capillary-like tubes in Matrigel. BAECs were transfected with JNK1 siRNA, JNK2 siRNA, JNK3 siRNA or control siRNA. After 72 hours, cells were plated on Matrigel in medium containing 50 ng/ml SDF-1α.

The results in this text go back to patent US8153589B2, “JNK3 as a target for the treatment of angiogenesis-related diseases” (The University of North Carolina at Chapel Hill, priority 2009, dated 2012).

As to SDF-1α, in the assay on BAECs [1], the “BAEC migration towards the wounded area” value is 56.0±12.0%. Also, in the assay with JNK3 (50 ng/ml SDF-1alpha for 5 minutes), the “phosphorylation of exogenous Flag/GFP-tagged JNK1, JNK2, JNK3” value is listed as “only phosphorylation of JNK3 (but not JNK1 or JNK2) was increased”. In addition, the JNK activity entry with JNK3 (SDF-1α 50 ng/ml) is given as “potently induced”. In addition, the ERK1/2 activity result with ERK1/2 is given as “potently induced”. Also, in the assay with p38, the p38 activation result was “not significantly activated”. The same substance yielded a tube length in the assay on BAECs [2] of 605±106 μm.
